Experimental data as given in EPA's ToxRefDB 2.

Legend:
rat [1] = details: Subchronic oral toxicity in rodents, sprague dawley, Feed, dose end: 13 week, group: systemic
mouse [2] = details: Subchronic oral toxicity in rodents, b6c3f1, Feed, dose end: 13 week, group: systemic
hamster = details: Subchronic oral toxicity in rodents, golden syrian, Feed, dose end: 13 week, group: systemic
rat [3] = details: Combined chronic toxicity/carcinogenicity, fischer, Oral, Feed, dose end: 2 year, group: systemic
dog = details: Chronic toxicity, beagle, Oral, Feed, dose end: 52 week, group: systemic, systemic / in life observation / clinical signs / feces
rat [4] = details: Subchronic oral toxicity in rodents, wistar, Feed, dose end: 13 week, group: systemic
mouse [5] = details: Carcinogenicity, b6c3f1, Oral, Feed, dose end: 18 month
rat [6] = details: Developmental neurotoxicity ChE Inhibition study; sprague dawley; Oral; Gavage/Intubation; dose end: 21 PND; group: cannot be grouped; cholinesterase / cholinesterase / cholinesterase / erythrocyte cholinesterase (che)
rat [7] = details: Combined chronic toxicity/carcinogenicity, fischer, Oral, Feed, dose end: 24 month
rat [8] = details: Combined chronic toxicity/carcinogenicity, fischer, Oral, Feed, dose end: 24 month; remark: listed apart in the source
[9] = systemic / clinical chemistry / alkaline phosphatase (alp/alk) / alkaline phosphatase (alp/alk) + systemic / organ weight / kidney / …
[10] = systemic / in life observation / body weight / body weight + systemic / in life observation / body weight / body weight gain + systemic / …
[11] = systemic / pathology microscopic / liver / cytoplasmic alteration + systemic / clinical chemistry / cholesterol / cholesterol + systemic / …
[12] = systemic / clinical chemistry / urea nitrogen / urea nitrogen
[13] = systemic / hematology / platelet / platelet + systemic / in life observation / body weight / body weight + systemic / in life observation / …
[14] = discoloration + systemic / hematology / blood clotting / blood clotting - activated…
[15] = systemic / clinical chemistry / sodium / sodium
[16] = systemic / hematology / blood clotting / blood clotting - prothrombin time + systemic / hematology / blood clotting / blood clotting - …
[17] = group: cholinesterase, cholinesterase / cholinesterase / cholinesterase / erythrocyte cholinesterase (che) + cholinesterase / cholinesterase / cholinesterase / …
[18] = group: systemic, systemic / in life observation / body weight / body weight + systemic / in life observation / food consumption / food consumption + systemic…
[19] = group: cholinesterase, cholinesterase / cholinesterase / cholinesterase / plasma cholinesterase (che)
[20] = group: cholinesterase, cholinesterase / cholinesterase / cholinesterase / plasma cholinesterase (che) + cholinesterase / cholinesterase / cholinesterase / brain …
[21] = group: systemic, systemic / pathology microscopic / parathyroid gland / hyperplasia
[22] = group: systemic, systemic / pathology microscopic / parathyroid gland / hyperplasia + systemic / hematology / erythrocyte (rbc) count differential / …
[23] = group: cholinesterase, cholinesterase / cholinesterase / cholinesterase / erythrocyte cholinesterase (che)
[24] = group: systemic, systemic / hematology / mean corpuscular (cell) volume (mcv) / mean corpuscular (cell) volume (mcv) + systemic / hematology / mean …
[25] = group: systemic, systemic / in life observation / food consumption / food consumption + systemic / pathology microscopic / parathyroid gland / hyperplasia

`Cc1cccc(Nc2cc(Cl)nc(SCC(=O)O)n2)c1C` [Pirinixic acid] was tested, and the LEL (rat [1]; [9]) was 0.3 mg/kg/day, the NEL (rat [1]; [9]) was < 0.3 mg/kg/day and the NOAEL (rat [1]; [9]) was 0.6 mg/kg/day. For the same molecule, the LOAEL (rat [1]; systemic / pathology microscopic / liver / cytoplasmic alteration + systemic / in life observation / body weight / body weight + systemic / …) was 3 mg/kg/day, the LOAEL (mouse [2]; [10]) was 22 mg/kg/day and the NOAEL (mouse [2]; [10]) was 12 mg/kg/day. For the same molecule, the LEL (mouse [2]; [11]) was 0.9 mg/kg/day, the NEL (mouse [2]; [11]) was < 0.9 mg/kg/day and the LOAEL (hamster; [10]) was 0.7 mg/kg/day. For the same molecule, the NOAEL (hamster; [10]) was 0.4 mg/kg/day, the LEL (hamster; [11]) was 0.4 mg/kg/day and the NEL (hamster; [11]) was < 0.4 mg/kg/day.
For `CC(C)N1C(=O)c2ccccc2NS1(=O)=O` [Bentazon], the LEL (rat [3]; [12]) was 9 mg/kg/day, the NEL (rat [3]; [12]) was < 9 mg/kg/day and the LOAEL (rat [3]; [13]) was 180 mg/kg/day. For the same molecule, the NOAEL (rat [3]; [13]) was 35 mg/kg/day, the LOAEL (dog; discoloration) was 13.1 mg/kg/day and the NEL (dog; [14]) was 3.2 mg/kg/day. The NOAEL (dog; [14]) was 3.2 mg/kg/day, the LEL (dog; discoloration + systemic / in life observation / clinical signs / [other]) was 13.1 mg/kg/day and the LEL (rat [4]; [15]) was 25.3 mg/kg/day. The NEL (rat [4]; [15]) was < 25.3 mg/kg/day, the LOAEL (rat [4]; [16]) was 243 mg/kg/day and the NOAEL (rat [4]; [16]) was 77.8 mg/kg/day.
In the case of `CCOC(=O)CC(SP(=S)(OC)OC)C(=O)OCC` (configuration not stated) [Malathion], the LEL (mouse [5]; [17]) is reported as 143 mg/kg/day, the LOAEL (mouse [5]; [17]) is reported as 143 mg/kg/day and the NEL (mouse [5]; [17]) is reported as 17.4 mg/kg/day. It also gave an NOAEL (mouse [5]; [17]) of 17.4 mg/kg/day, an LEL (mouse [5]; [18]) of 1480 mg/kg/day and an LOAEL (mouse [5]; [18]) of 1480 mg/kg/day. It also gave an NEL (mouse [5]; [18]) of 143 mg/kg/day, an NOAEL (mouse [5]; [18]) of 143 mg/kg/day and an LEL (rat [6]) of 5 mg/kg/day. The LOAEL (rat [6]) was 5 mg/kg/day, the NEL (rat [6]) was < 5 mg/kg/day and the NOAEL (rat [6]) was < 5 mg/kg/day. It also gave an LOAEL (rat [7]; [19]) of 29 mg/kg/day, an NEL (rat [7]; [20]) of 4 mg/kg/day and an NOAEL (rat [7]; [20]) of 4 mg/kg/day. The LEL (rat [7]; group: cholinesterase, cholinesterase / cholinesterase / cholinesterase / plasma cholinesterase (che) + cholinesterase / cholinesterase / cholinesterase / …) was 29 mg/kg/day, the LEL (rat [7]; [21]) was 4 mg/kg/day and the NEL (rat [7]; [21]) was < 4 mg/kg/day. The LOAEL (rat [7]; [22]) was > 739 mg/kg/day, the NOAEL (rat [7]; [22]) was ≥ 739 mg/kg/day and the LEL (rat [8]; [23]) was 5 mg/kg/day. The NEL (rat [8]; [23]) was < 5 mg/kg/day, the LOAEL (rat [8]; [19]) was 29 mg/kg/day and the NOAEL (rat [8]; [20]) was 4 mg/kg/day. It also gave an LOAEL (rat [8]; [24]) of 359 mg/kg/day, an NOAEL (rat [8]; [24]) of 29 mg/kg/day and an LEL (rat [8]; [25]) of 4 mg/kg/day. The NEL (rat [8]; [25]) was < 4 mg/kg/day.
